Assay results as given in patent US5571804A, “Cephalosporin antibiotics” (priority 1993, dated 1996).

How the values were obtained:
[1] = system: Staphylococcus aureus giorgio; assay: MIC, two-fold agar dilution; type: cell-based; details: Muller-Hinton agar, 37° C., 20 hours
[2] = system: Staphylococcus aureus 241; assay: MIC, two-fold agar dilution; type: cell-based; details: Muller-Hinton agar, 37° C., 20 hours
[3] = system: Pseudomonas aeruginosa 1912E; assay: MIC, two-fold agar dilution; type: cell-based; details: Muller-Hinton agar, 37° C., 20 hours
[4] = system: Streptococcus laecalis 29212A; assay: MIC, two-fold agar dilution; type: cell-based; details: Muller-Hinton agar, 37° C., 20 hours
E. coli TEM9 2639E = assay: MIC, two-fold agar dilution; type: cell-based; details: Muller-Hinton agar, 37° C., 20 hours
[5] = system: Staphylococcus epidermidis 887E; assay: MIC, two-fold agar dilution; type: cell-based; details: Muller-Hinton agar, 37° C., 20 hours
Enterobacter cloacae P99 = assay: MIC, two-fold agar dilution; type: cell-based; details: Muller-Hinton agar, 37° C., 20 hours
[6] = system: Serratia marcescens 1826E; assay: MIC, two-fold agar dilution; type: cell-based; details: Muller-Hinton agar, 37° C., 20 hours
[7] = system: Pseudomonas aeruginosa 10145; assay: MIC, two-fold agar dilution; type: cell-based; details: Muller-Hinton agar, 37° C., 20 hours
Staphylococcus aureus 77 = assay: MIC, two-fold agar dilution; type: cell-based; details: Muller-Hinton agar, 37° C., 20 hours
[8] = pharmakinetic variables in SD rats; details: rat, in vivo, iv, 20 mg/kg
Protocol: The pharmakinetic variables were determined using SD rats (.male.) of a body weight of 230±10g as follows. The "S" compound of each of the Examples was injected to femoral vein of 4-5 rats by 20mg/Kg and then blood was collected from femoral artery in 1, 2.5, 5, 10, 20, 40, 60 and 120 min.

[9] = system: Acinetobacter calcoaceticus 15473A; assay: MIC, two-fold agar dilution; type: cell-based; details: Muller-Hinton agar, 37° C., 20 hours
E. coli 3190Y = assay: MIC, two-fold agar dilution; type: cell-based; details: Muller-Hinton agar, 37° C., 20 hours
E. coli TEM3 3455E = assay: MIC, two-fold agar dilution; type: cell-based; details: Muller-Hinton agar, 37° C., 20 hours
[10] = system: Staphylococcus aureus 6538P; assay: MIC, two-fold agar dilution; type: cell-based; details: Muller-Hinton agar, 37° C., 20 hours
Proteus vularis 6059A = assay: MIC, two-fold agar dilution; type: cell-based; details: Muller-Hinton agar, 37° C., 20 hours
E. coli TEM5 3739E = assay: MIC, two-fold agar dilution; type: cell-based; details: Muller-Hinton agar, 37° C., 20 hours
[11] = system: Citrobacter diversus 2046E; assay: MIC, two-fold agar dilution; type: cell-based; details: Muller-Hinton agar, 37° C., 20 hours
E. coli 10536 = assay: MIC, two-fold agar dilution; type: cell-based; details: Muller-Hinton agar, 37° C., 20 hours
[12] = system: Pseudomonas aeruginosa 6065; assay: MIC, two-fold agar dilution; type: cell-based; details: Muller-Hinton agar, 37° C., 20 hours
E. coli 851E = assay: MIC, two-fold agar dilution; type: cell-based; details: Muller-Hinton agar, 37° C., 20 hours
E. coli TEM1 1193E = assay: MIC, two-fold agar dilution; type: cell-based; details: Muller-Hinton agar, 37° C., 20 hours
[13] = system: Klebsiella aerogenes SHV-1 1976E; assay: MIC, two-fold agar dilution; type: cell-based; details: Muller-Hinton agar, 37° C., 20 hours
[14] = system: Enterobacter cloacae IND + VE 1194E; assay: MIC, two-fold agar dilution; type: cell-based; details: Muller-Hinton agar, 37° C., 20 hours
[15] = system: Klebsiella aerogenes K1 + 1082E; assay: MIC, two-fold agar dilution; type: cell-based; details: Muller-Hinton agar, 37° C., 20 hours
E. coli TEM7 3457E = assay: MIC, two-fold agar dilution; type: cell-based; details: Muller-Hinton agar, 37° C., 20 hours
[16] = system: Salmonella typhimurium 14028A; assay: MIC, two-fold agar dilution; type: cell-based; details: Muller-Hinton agar, 37° C., 20 hours

## Nc1nc(/C(=N/O[C@H](C(=O)O)c2ccc(O)c(O)c2)C(=O)N[C@@H]2C(=O)N3C(C(=O)O)=C(CSc4nc(N)c5c(n4)CCC5)CS[C@H]23)cs1 [Compound I-4S, 7-[(Z)-2-(aminothiazol-4-yl)-2-(α-carboxyl-3,4-dihydroxybenzyioxyimino)acetamido]-3-(4-amino-5,6-cyclopentapyrimidine-2-yl)thiomethyl-3-cephem-4-carboxylate]
[1]
  minimal inhibitory concentration (MIC): 1
[2]
  minimal inhibitory concentration (MIC): 64
[3]
  minimal inhibitory concentration (MIC): 0.25
[4]
  minimal inhibitory concentration (MIC): 4
E. coli TEM9 2639E
  minimal inhibitory concentration (MIC): 0.25
[5]
  minimal inhibitory concentration (MIC): 32
Enterobacter cloacae P99
  minimal inhibitory concentration (MIC): 8
[6]
  minimal inhibitory concentration (MIC): 0.25
[7]
  minimal inhibitory concentration (MIC): 0.13
Staphylococcus aureus 77
  minimal inhibitory concentration (MIC): 8
[8]
  AUC at 2 h: 55500 ng·h/mL
  half-life: 57 min
[9]
  minimal inhibitory concentration (MIC): 0.13
E. coli 3190Y
  minimal inhibitory concentration (MIC): 0.031
E. coli TEM3 3455E
  minimal inhibitory concentration (MIC): 0.016
[10]
  minimal inhibitory concentration (MIC): 1
Proteus vularis 6059A
  minimal inhibitory concentration (MIC): 0.13
E. coli TEM5 3739E
  minimal inhibitory concentration (MIC): 0.063
[11]
  minimal inhibitory concentration (MIC): 0.063
E. coli 10536
  minimal inhibitory concentration (MIC): ≤ 0.008
[12]
  minimal inhibitory concentration (MIC): 0.13
E. coli 851E
  minimal inhibitory concentration (MIC): 0.031
E. coli TEM1 1193E
  minimal inhibitory concentration (MIC): 0.063
[13]
  minimal inhibitory concentration (MIC): 0.13
[14]
  minimal inhibitory concentration (MIC): 2
[15]
  minimal inhibitory concentration (MIC): 0.031
E. coli TEM7 3457E
  minimal inhibitory concentration (MIC): ≤ 0.008
[16]
  minimal inhibitory concentration (MIC): 0.016

## Nc1ccnc(SCC2=C(C(=O)O)N3C(=O)[C@@H](NC(=O)/C(=N\O[C@H](C(=O)O)c4ccc(O)c(O)c4)c4csc(N)n4)[C@H]3SC2)n1 [Compound I-3S, 7-[(Z)-2-(aminothiazol-4-yl)-2-(α-carboxyl-3,4-dihydroxybenzyloxyimino)acetamido]-3-(4-amino-pyrimidine-2-yl) thiomethyl-3-cephem-4-carboxylate]
[1]
  minimal inhibitory concentration (MIC): 1
[2]
  minimal inhibitory concentration (MIC): 128
[3]
  minimal inhibitory concentration (MIC): 0.25
[4]
  minimal inhibitory concentration (MIC): 4
E. coli TEM9 2639E
  minimal inhibitory concentration (MIC): 0.25
[5]
  minimal inhibitory concentration (MIC): 32
Enterobacter cloacae P99
  minimal inhibitory concentration (MIC): 8
[6]
  minimal inhibitory concentration (MIC): 0.25
[7]
  minimal inhibitory concentration (MIC): 0.13
Staphylococcus aureus 77
  minimal inhibitory concentration (MIC): 4
[8]
  AUC at 2 h: 57900 ng·h/mL
  half-life: 58 min
[9]
  minimal inhibitory concentration (MIC): 0.13
E. coli 3190Y
  minimal inhibitory concentration (MIC): 0.031
E. coli TEM3 3455E
  minimal inhibitory concentration (MIC): 0.016
[10]
  minimal inhibitory concentration (MIC): 2
Proteus vularis 6059A
  minimal inhibitory concentration (MIC): 0.13
E. coli TEM5 3739E
  minimal inhibitory concentration (MIC): 0.063
[11]
  minimal inhibitory concentration (MIC): 0.031
E. coli 10536
  minimal inhibitory concentration (MIC): ≤ 0.008
[12]
  minimal inhibitory concentration (MIC): 0.5
E. coli 851E
  minimal inhibitory concentration (MIC): 0.063
E. coli TEM1 1193E
  minimal inhibitory concentration (MIC): 0.031
[13]
  minimal inhibitory concentration (MIC): 0.13
[14]
  minimal inhibitory concentration (MIC): 2
[15]
  minimal inhibitory concentration (MIC): 0.031
E. coli TEM7 3457E
  minimal inhibitory concentration (MIC): 0.063
[16]
  minimal inhibitory concentration (MIC): 0.016

## Nc1cc(N)nc(SCC2=C(C(=O)O)N3C(=O)[C@@H](NC(=O)/C(=N\O[C@H](C(=O)O)c4ccc(O)c(O)c4)c4csc(N)n4)[C@H]3SC2)n1 [Compound I-1S, 7-[(Z)-2-(aminothiazol-4-yl)-2-(α-carboxy-3,4-dihydroxybenzyloxyimino)acetamido]-3-(4,6-diamino-pyrimidine-2-yl) thiomethyl-3-cephem-4-carboxylate]
[1]
  minimal inhibitory concentration (MIC): 1
[2]
  minimal inhibitory concentration (MIC): 64
[3]
  minimal inhibitory concentration (MIC): 0.25
[4]
  minimal inhibitory concentration (MIC): 4
E. coli TEM9 2639E
  minimal inhibitory concentration (MIC): 0.25
[5]
  minimal inhibitory concentration (MIC): 32
Enterobacter cloacae P99
  minimal inhibitory concentration (MIC): 16
[6]
  minimal inhibitory concentration (MIC): 0.25
[7]
  minimal inhibitory concentration (MIC): 0.13
Staphylococcus aureus 77
  minimal inhibitory concentration (MIC): 8
[8]
  AUC at 2 h: 61600 ng·h/mL
  half-life: 62 min
[9]
  minimal inhibitory concentration (MIC): 0.13
E. coli 3190Y
  minimal inhibitory concentration (MIC): 0.031
E. coli TEM3 3455E
  minimal inhibitory concentration (MIC): 0.016
[10]
  minimal inhibitory concentration (MIC): 2
Proteus vularis 6059A
  minimal inhibitory concentration (MIC): 0.13
E. coli TEM5 3739E
  minimal inhibitory concentration (MIC): 0.063
[11]
  minimal inhibitory concentration (MIC): 0.063
E. coli 10536
  minimal inhibitory concentration (MIC): ≤ 0.008
[12]
  minimal inhibitory concentration (MIC): 0.25
E. coli 851E
  minimal inhibitory concentration (MIC): 0.031
E. coli TEM1 1193E
  minimal inhibitory concentration (MIC): 0.031
[13]
  minimal inhibitory concentration (MIC): 0.13
[14]
  minimal inhibitory concentration (MIC): 2
[15]
  minimal inhibitory concentration (MIC): 0.031
E. coli TEM7 3457E
  minimal inhibitory concentration (MIC): ≤ 0.008
[16]
  minimal inhibitory concentration (MIC): 0.016

## Cc1c(N)nc(SCC2=C(C(=O)O)N3C(=O)[C@@H](NC(=O)/C(=N\O[C@H](C(=O)O)c4ccc(O)c(O)c4)c4csc(N)n4)[C@H]3SC2)nc1N [Compound I-2S, 7-[(Z)-2-(aminothiazol-4-yl)-2-(α-carboxyl-3,4-dihydroxybenzyloxyimino)acetamido]-3-(4,6-diamino-5-methylpyrimidine-2-yl)thiomethyl-3-cephem-4-carboxylate]
[1]
  minimal inhibitory concentration (MIC): 1
[2]
  minimal inhibitory concentration (MIC): 64
[3]
  minimal inhibitory concentration (MIC): 0.5
[4]
  minimal inhibitory concentration (MIC): 4
E. coli TEM9 2639E
  minimal inhibitory concentration (MIC): 0.25
[5]
  minimal inhibitory concentration (MIC): 16
Enterobacter cloacae P99
  minimal inhibitory concentration (MIC): 8
[6]
  minimal inhibitory concentration (MIC): 0.25
[7]
  minimal inhibitory concentration (MIC): 0.13
Staphylococcus aureus 77
  minimal inhibitory concentration (MIC): 4
[8]
  AUC at 2 h: 54100 ng·h/mL
  half-life: 55 min
[9]
  minimal inhibitory concentration (MIC): 0.25
E. coli 3190Y
  minimal inhibitory concentration (MIC): 0.063
E. coli TEM3 3455E
  minimal inhibitory concentration (MIC): 0.016
[10]
  minimal inhibitory concentration (MIC): 1
Proteus vularis 6059A
  minimal inhibitory concentration (MIC): 0.13
E. coli TEM5 3739E
  minimal inhibitory concentration (MIC): 0.063
[11]
  minimal inhibitory concentration (MIC): 0.016
E. coli 10536
  minimal inhibitory concentration (MIC): ≤ 0.008
[12]
  minimal inhibitory concentration (MIC): 0.25
E. coli 851E
  minimal inhibitory concentration (MIC): 0.031
E. coli TEM1 1193E
  minimal inhibitory concentration (MIC): 0.031
[13]
  minimal inhibitory concentration (MIC): 0.13
[14]
  minimal inhibitory concentration (MIC): 4
[15]
  minimal inhibitory concentration (MIC): 0.031
E. coli TEM7 3457E
  minimal inhibitory concentration (MIC): ≤ 0.008
[16]
  minimal inhibitory concentration (MIC): 0.016

## Nc1cc(SCC2=C(C(=O)O)N3C(=O)[C@@H](NC(=O)/C(=N\O[C@H](C(=O)O)c4ccc(O)c(O)c4)c4csc(N)n4)[C@H]3SC2)ncn1 [Compound I-7S, 7[-(Z)-2-(aminothiazol-4-yl)-2-(α-carboxy-3,4-dihydroxybenzyloxyimino)acetamido]-3-(6-amino-pyrimidine-4-yl)thiomethyl-3cephem-4-carboxylate]
[1]
  minimal inhibitory concentration (MIC): 1
[2]
  minimal inhibitory concentration (MIC): 64
[3]
  minimal inhibitory concentration (MIC): 0.25
[4]
  minimal inhibitory concentration (MIC): 2
E. coli TEM9 2639E
  minimal inhibitory concentration (MIC): 0.13
[5]
  minimal inhibitory concentration (MIC): 32
Enterobacter cloacae P99
  minimal inhibitory concentration (MIC): 8
[6]
  minimal inhibitory concentration (MIC): 0.25
[7]
  minimal inhibitory concentration (MIC): 0.25
Staphylococcus aureus 77
  minimal inhibitory concentration (MIC): 4
[8]
  AUC at 2 h: 60000 ng·h/mL
  half-life: 59 min
[9]
  minimal inhibitory concentration (MIC): 0.13
E. coli 3190Y
  minimal inhibitory concentration (MIC): 0.031
E. coli TEM3 3455E
  minimal inhibitory concentration (MIC): 0.016
[10]
  minimal inhibitory concentration (MIC): 2
Proteus vularis 6059A
  minimal inhibitory concentration (MIC): 0.25
E. coli TEM5 3739E
  minimal inhibitory concentration (MIC): 0.063
[11]
  minimal inhibitory concentration (MIC): 0.063
E. coli 10536
  minimal inhibitory concentration (MIC): ≤ 0.008
[12]
  minimal inhibitory concentration (MIC): 0.5
E. coli 851E
  minimal inhibitory concentration (MIC): 0.063
E. coli TEM1 1193E
  minimal inhibitory concentration (MIC): 0.063
[13]
  minimal inhibitory concentration (MIC): 0.25
[14]
  minimal inhibitory concentration (MIC): 2
[15]
  minimal inhibitory concentration (MIC): 0.063
E. coli TEM7 3457E
  minimal inhibitory concentration (MIC): 0.016
[16]
  minimal inhibitory concentration (MIC): 0.016
